One assay concerns the target T1, RIG-I (Homo sapiens, UniProt O95786).
T1 construct: Recombinant full-length human RIG-I or RIG-I single amino acid mutants (1–925, N-terminal His-tag); made in house; host or cells: High Five (Trichoplusia ni) insect cells, baculovirus, pFBDM vector
T1 sequence (O95786 1-925): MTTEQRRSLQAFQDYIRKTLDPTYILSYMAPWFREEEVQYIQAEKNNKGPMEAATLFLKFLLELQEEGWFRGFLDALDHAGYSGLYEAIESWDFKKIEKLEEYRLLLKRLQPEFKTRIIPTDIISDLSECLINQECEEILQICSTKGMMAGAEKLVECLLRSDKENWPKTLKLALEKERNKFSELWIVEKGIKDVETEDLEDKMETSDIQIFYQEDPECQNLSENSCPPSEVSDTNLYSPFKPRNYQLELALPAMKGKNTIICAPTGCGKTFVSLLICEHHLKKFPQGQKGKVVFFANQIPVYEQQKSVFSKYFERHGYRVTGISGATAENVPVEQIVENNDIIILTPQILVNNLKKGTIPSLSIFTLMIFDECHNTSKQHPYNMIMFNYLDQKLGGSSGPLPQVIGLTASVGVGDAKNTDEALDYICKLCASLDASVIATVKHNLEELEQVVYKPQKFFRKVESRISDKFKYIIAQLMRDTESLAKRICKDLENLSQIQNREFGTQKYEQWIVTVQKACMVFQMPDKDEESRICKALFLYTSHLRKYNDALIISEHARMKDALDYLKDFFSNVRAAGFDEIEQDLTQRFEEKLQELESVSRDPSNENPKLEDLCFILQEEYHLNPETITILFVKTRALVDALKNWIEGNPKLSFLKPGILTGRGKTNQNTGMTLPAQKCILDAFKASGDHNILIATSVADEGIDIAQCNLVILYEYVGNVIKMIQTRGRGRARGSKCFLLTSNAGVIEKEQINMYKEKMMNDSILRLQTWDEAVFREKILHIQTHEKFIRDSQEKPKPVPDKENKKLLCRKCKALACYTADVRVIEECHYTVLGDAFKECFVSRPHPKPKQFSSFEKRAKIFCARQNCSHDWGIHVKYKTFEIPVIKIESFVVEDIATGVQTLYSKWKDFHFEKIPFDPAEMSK
The assay is described as follows: MANT-nucleotide binding, tryptophan fluorescence FRET. The settings on record: absence of RNA; full-length His-RIG-I; n = 4; read-out: Affinity (KD) to RIG-I. As for the experimental part: (§1) Binding of MANT-ATP and MANT-ATPγS to different full-length RIG-I mutants (1–925, N-terminal His-tag) was determined via Förster resonance energy transfer from RIG-I to MANT-ATP (Jena Bioscience, Jena, Germany). […] Fluorescence of MANT-ATP was measured in a TECAN M1000 microplate reader at λex/em = 290/448 nm, gain = 170 using an average of five reads per well. Assays were performed four times in independent experiments using the same protein purification batch. For determination of affinities fluorescence values were fitted to Equation (1) using R, where y is the fluorescence, [P] is the protein concentration, Bmax is the maximal fluorescence and KD is the dissociation constant. Fitting was performed globally on all available datasets. Representative values in figures are mean values ± SD.

The next assay addresses T2, RIG-I E373Q (Homo sapiens, UniProt O95786, E373Q).
T2 construct: different full-length RIG-I mutants (1–925, N-terminal His-tag); made in house; host or cells: High Five (Trichoplusia ni) insect cells, baculovirus, pFBDM vector
T2 sequence (O95786 1-925 E373Q): T1 sequence (O95786 1-925) with E373Q
The assay is described as above. The settings on record: n = 4. Here is the method:
as §1

Kd data for one substance are collected here from article PMC6086658, “Unified mechanisms for self-RNA recognition by RIG-I Singleton-Merten syndrome variants” (eLife, 2018).

Residue numbers refer to the chain shown, from its start. Read-outs that look alike come from different tables or passages of the source.

As to MANT-ATP, the Kd (in general, a measure of binding affinity in units of concentration) came to 72 ± 13 µM at RIG-I; 72 ± 13 µM on RIG-I E373Q (absence of RNA, read-out: Affinity (KD) to RIG-I E373Q); 28 ± 5 µM on RIG-I E373Q (presence of equimolar 14mer dsRNA, read-out: Affinity (KD) to RIG-I E373Q + RNA).
